Experimental data taken from article PMC11252457 (Acta Pharmaceutica Sinica. B, 2024).
“And” between values parts separate entries of the source, which are not always exact repeats. Identical values can stand only once. Like-named read-outs stand apart in the source and are kept apart here.

Assays:
[1] = tested on: HIV-1 mutant strain K103N; experiment: microbe, parasite or virus in culture; assay type: cell-based; details: for EC50: Human immunodeficiency virus 1, MT4, read-out: EC50 K103N
WT HIV-1 (IIIB) = experiment: microbe, parasite or virus in culture; assay type: cell-based; details: for EC50: Human immunodeficiency virus 1, IIIB, MT4, read-out: EC50 IIIB; for SI IIIB: ratio of CC50/EC50, IIIB
[2] = tested on: HIV-1 double mutant strain F227L/V106A; experiment: microbe, parasite or virus in culture; assay type: cell-based; details: for EC50: Human immunodeficiency virus 1, MT4, read-out: EC50 F227L/V106A
[3] = Cytotoxicity in mock-infected MT-4 cells; details: human
[4] = tested on: HIV-1 mutant strain Y181C; experiment: microbe, parasite or virus in culture; assay type: cell-based; details: for EC50: Human immunodeficiency virus 1, MT4, read-out: EC50 Y181C
[5] = tested on: HIV-1 mutant strain L100I; experiment: microbe, parasite or virus in culture; assay type: cell-based; details: Human immunodeficiency virus 1, MT4, read-out: EC50 L100I
recombinant WT HIV-1 RT = recombinant WT HIV-1 RT (Human immunodeficiency virus type 1 group M subtype B, UniProt P03366); experiment: HIV-1 RT inhibition assay; assay type: biochemical
[6] = tested on: HIV-1 mutant strain E138K; experiment: microbe, parasite or virus in culture; assay type: cell-based; details: for EC50: Human immunodeficiency virus 1, MT4, read-out: EC50 E138K
[7] = tested on: HIV-1 RES056 (K103N/Y181C); experiment: microbe, parasite or virus in culture; assay type: cell-based; details: for EC50: Human immunodeficiency virus 1, MT4, read-out: EC50 RES056; for SI RES056: ratio of CC50/EC50, RES056
[8] = tested on: HIV-1 mutant strain Y188L; experiment: microbe, parasite or virus in culture; assay type: cell-based; details: for EC50: Human immunodeficiency virus 1, MT4, read-out: EC50 Y188L
Aqueous solubility = assay type: physicochemical
[9] = cited from earlier work

SMILES	EC50 [1] [µM]	EC50 (WT HIV-1 (IIIB)) [µM]	SI IIIB (WT HIV-1 (IIIB))	EC50 [2] [µM]	CC50 at 5 days [3] [µM]	EC50 [4] [µM]	EC50 [5] [µM]	IC50 (recombinant WT HIV-1 RT) [µM]	EC50 [6] [µM]	EC50 [7] [µM]	SI RES056 [7]	EC50 [8] [µM]	further results
COP(=O)(OC)c1ccc(CN2CCC(Nc3nc(Oc4c(C)cc(C#N)cc4C)c4sccc4n3)CC2)cc1 [9b, Dimethyl (4-((4-((4-(4-cyano-2,6-dimethylphenoxy)thieno[3,2-d]pyrimidin-2-yl)amino)piperidin-1-yl)methyl)phenyl)phosphonate]	0.00372 ± 0.00127	0.00363 ± 0.00115	15,014	0.00814 ± 0.00185	54.5 ± 1.29	0.0153 ± 0.0101	0.0108 ± 0.00342	0.35 ± 0.05	0.0149 ± 0.0086	0.193 ± 0.0404	282	0.00995 ± 0.00561	–
CCOP(=O)(OCC)c1ccc(CN2CCC(Nc3nc(Oc4c(C)cc(C#N)cc4C)c4sccc4n3)CC2)cc1 [9c, Diethyl (4-((4-((4-(4-cyano-2,6-dimethylphenoxy)thieno[3,2-d]pyrimidin-2-yl)amino)piperidin-1-yl)methyl)phenyl)phosphonate]	≤ 0.00462	0.0069 ± 0.00192	16,957	0.0143 ± 0.00455	117 ± 7.75	0.0132 ± 0.0056	0.0115 ± 0.00327	0.76 ± 0.15	0.0123 ± 0.00198	0.445 ± 0.109	263	0.017 ± 0.011	–
Cc1cc(/C=C/C#N)cc(C)c1Oc1nc(NC2CCN(Cc3ccc(P(C)(C)=O)cc3)CC2)nc2ccsc12 [15a, (E)-3-(4-((2-((1-(4-(Dimethylphosphoryl)benzyl)piperidin-4-yl)amino)thieno[3,2-d]pyrimidin-4-yl)oxy)-3,5-dimethylphenyl)acrylonitrile]	0.00127 ± 0.00068	0.00175 ± 0.00064	–	0.00376 ± 0.00046	117 ± 23.9	0.00538 ± 0.00161	0.00284 ± 9e-05	0.34 ± 0.09	0.00428 ± 0.00104	0.0158 ± 0.00262	–	0.00796 ± 0.00389	Fold more effective than ETR, K103N [1]: 2.4 fold and ~2.39 fold; Fold more effective than ETR, WT (WT HIV-1 (IIIB)): 1.6 fold; Aqueous solubility (Aqueous solubility; pH = 2.0): 0.283 mg/mL; Aqueous solubility (Aqueous solubility; pH = 7.4): 0.0276 mg/mL; Fold higher activity than RPV, F227L/V106A [2]: ~21.7 fold; Fold more effective than ETR, F227L/V106A [2]: 4.8 fold and ~4.84 fold; Fold more effective than ETR, Y181C [4]: 3.3 fold and ~3.31 fold; Fold more effective than ETR, E138K [6]: ~2.45 fold; Fold more effective than ETR, RES056 [7]: 5.3 fold; Fold higher activity than RPV, Y188L [8]: about 9.97 fold; Fold more effective than ETR, Y188L [8]: ~2.78 fold
Cc1cc(C#N)cc(C)c1Oc1nc(Nc2ccc(C#N)cc2)nc(N)c1Br [ETR, etravirine, reference compound]	0.00304 ± 0.0009	0.00281 ± 0.00108	–	0.0182 ± 0.0124	> 4.59	0.0178 ± 0.00574	0.00839 ± 0.0034	–	0.0105 ± 0.00249	0.0833 ± 0.0211	–	0.0221 ± 0.00633	Aqueous solubility ([9]; pH = 2.0): 127 µg/mL; Aqueous solubility ([9]; pH = 7.0): <<1 μg/mL; Aqueous solubility ([9]; pH = 7.4): <1 µg/mL
